In patent publication US20090275529A1, “METHOD FOR IMPROVING CARDIOVASCULAR RISK PROFILE OF COX INHIBITORS” (priority 2008, published 2009):
Where “and” joins values, the source holds several entries; their conditions need not be identical. Equal entries are not always repeated. Entries after “also recorded” stand apart in the source; their conditions may differ.

Tests used:
[1] = rats, IV dose 0.3 mg/kg; cited from earlier work
[2] = test system: 27-OHase mRNA in Balb/C murine macrophages; assay: 27-OHase mRNA in Balb/C murine macrophages; type: cell-based; details: 10^−5M, 3 hours, 37° C., n=3 per group
Description: A number of different highly receptor-specific agonists and antagonists of adenosine receptors have been developed that either mimic or block the effects of adenosine. […] Based on the upregulation of 27-OHase in murine cells upon exposure to CGS-21680, the same effect was established in human monocytoid cells. In THP-1 cells, ABCA1 mRNA increased in concert with 27-OHase.

[3] = test system: cholesterol 27-OHase protein in THP-1 cells; assay: 27-OHase protein by Western immunoblot in THP-1 monocytes; type: cell-based, human; details: NS-398 50 μM
Method: Western Blots: Total cell lysates were prepared for Western immunoblotting using RIPA lysis buffer (98% PBS, 1% Igepal CA-630, 0.5% sodium deoxycholate, 0.1% sodium dodecyl sulfate [SDS]). 100 μl of RIPA lysis buffer and 10 μl of protease inhibitor cocktail (Sigma) were added to the cell pellet from each condition and incubated on ice for 35 minutes with vortexing every 5 min. Supernatants were collected after centrifuging at 10,000 g at 4° C. for 10 minutes using an Eppendorf 5415C centrifuge. The quantity of protein in each supernatant was measured by absorption at 560 nm using a Hitachi U2010 spectrophotometer.
Total cell lysate was used for Western blots. Protein samples ([…]) were boiled for 5 minutes, loaded onto a 10% polyacrylamide gel, electrophoresed for 1.5 hr at 100V then transferred to a nitrocellulose membrane in a semi-dry transblot apparatus for 1 hour at 100V. […] The five washes in TTBS were repeated, then the immunoreactive protein was detected using ECL western blotting detection reagent (Amersham Biosciences, Cat No RPN2106) and film development in SRX-101A (Konica Minolta).
As a control, on the same transferred membrane, beta-actin was detected using mouse anti-beta-actin (diluted in 1:1000, from abCam, product Code: ab6276) and ECL sheep anti-mouse-IgG Horseradish peroxidase-linked species-specific whole antibody (diluted in 1:2000, from Amersham Biosciences, product Code NA931) and all other similar steps as above.
Total cell lysate was isolated for Western immunoblotting using RIPA lysis buffer (98% PBS, 1% Igepal CA-630, 0.5% sodium deoxycholate, 0.1% SDS). […] The quantity of protein in each supernatant was measured by absorption at 560 nm using a Hitachi U2010 spectrophotometer.
Cultured TUP-1 monocytic cells were untreated or exposed to NS-398 (50 μM, 18 hr) then untreated or exposed to increasing doses of MTX for 24 hr. Total cell protein was isolated and 27-OHase detected with specific rabbit polyclonal anti-human 27-OHase antibody. […]

[4] = test system: cholesterol 27-OHase mRNA in THP-1 cells; assay: 27-OHase mRNA by real-time PCR (QRT-PCR) in THP-1 monocytes/macrophages; details: for increase in 27-OHase message: THP-1 cells; for effect on 27-OHase message: THP-1 monocytes/macrophages; for 27-OHase mRNA, % of control: THP-1 monocytes, MTX 5 μM, 18 hr, untreated = 100%, n=3
Method: THP-1 cells: When THP-1 cells had reached 10^6 cells/ml, media was aspirated and cells were rinsed twice with Dulbecco's Phosphate Buffered Saline (DPBS) without calcium and magnesium. The monocytes were then incubated for 24-48 hours in six well plates, (37° C., 5% CO2) under the following conditions: a) RPMI control; b) RPMI containing 5 mM MTX; c) RPMI containing NS-398 (50 μM); d) RPMI containing NS-398 (50 μM) and MTX (increasing doses of 0.1 μM, 0.5 μM and 5 μM); e) RPMI containing IFN-γ (500 U/ml); f) RPMI containing IFN-γ (500 U/ml) and 5 μM MTX.
TUP-1 macrophages were exposed to the following conditions: a) RPMI control; b) RPMI containing ZM-241385 (10 μM); c) RPMI containing MTX (5 μM); d) RPMI containing IFN-γ (500 U/ml); e) RPMI containing IFN-γ (500 U/ml) and 5 μM MTX; f) RPMI containing ZM-241385 (10 μM) and MTX (5 μM); g) RPMI containing IFN-γ (500 U/ml), ZM-241385 (10 μM) and MTX (5 μM); h) RPMI containing NS-398 (50 μM), ZM-241385 (10 μM) and MTX (5 μM).
Other experimental conditions of TUP-1 and PBMC included the following parameters and conditions: when THP-1 monocytes had reached 10^6 cells/ml, media was aspirated and cells were rinsed twice with Dulbecco's Phosphate Buffered Saline (DPBS) without calcium and magnesium.
RNA isolation and quantitation: RNA was isolated using 1 ml Trizol reagent per 10^6 cells and dissolved in nuclease-free water. The quantity of total RNA from each condition was measured by absorption at 260 and 280 wavelengths using quartz cuvettes by ultraviolet spectrophotometry (Hitachi U2010 spectrophotometer).
RT-PCR analysis of 27-OHase: 27-OHase and ABCA1 mRNA were quantitated by real-time PCR. cDNA was copied from 5 μg of total RNA using M-MLV reverse transcriptase primed with oligo dT. Equal amounts of cDNA were taken from each RT reaction mixture for PCR amplification using cholesterol 27-OHase-specific primers or ABCA1 specific primers as well as glyceraldehyde-3-phosphate dehydrogenase (GAPDH) control primers. The cholesterol 27-OHase-specific primers span a 311 base-pair sequence encompassing nucleotides 491-802 of the human cholesterol 27-OHase cDNA (24). ABCA1 primers yield a 234 BP amplified fragment. Real-time PCR analysis was performed using the SYBR Green PCR Reagents Kit (Applied Biosystems) with a Stratagene MX3005P QPCR System.
PCR was performed using techniques as follows. Each PCR reaction contained 2.5 μl of the 10 × fluorescent green buffer, 3 μl of 25 mM MgCl2, 2 μl dNTP mix (2500 μM dCTP, 2500 μM dGTP, 2500 μM dATP, and 5000 μM dUTP), 0.15 μl polymerase (5 U/μl; AmpliTaq Gold; Applied Biosystems), 0.25 μl uracil-N-glycosylase (1 U/μlUNG; AmpErase; Applied Biosystems), 0.5 μl of the forward and reverse primers (10 μM concentration), 4 μl cDNA, and water to a final volume of 25 μl. The thermal cycling parameters were as follows: 5 minutes at 95° C. to activate the polymerase (AmpliTaq Gold; Applied Biosystems), followed by 45 cycles of 30 seconds at 95° C. and 45 seconds at 58° C. then 45 seconds at 72° C. Each reaction was done in triplicate.
The amounts of PCR products were estimated, using software provided by the manufacturer (Stratagene). After completion of PCR cycles, the reactions were heat denatured over a 35° C. temperature gradient from 60° C. to 95° C. To correct for differences in cDNA load among samples, the target PCRs were normalized to a reference PCR involving the endogenous housekeeping genes glyceraldehyde-3-phosphate dehydrogenase (GAPDH) and β-actin. Nontemplate controls were included for each primer pair to check for significant levels of any contaminants. Fluorescence emission spectra were monitored and analyzed.

[5] = test system: ABCA1 mRNA in THP-1 cells; assay: ABCA1 mRNA by real-time PCR in THP-1 cells; type: cell-based, human; details: for effect on ABCA1 message: THP-1 monocytes/macrophages
[6] = test system: ABCA1 protein in THP-1 cells; assay: ABCA1 protein by Western blot in THP-1 cells; type: cell-based, human; details: 50 μM
Method: ABCA1 Detection: For ABCA1 detection, macrophage cell lysates were electrophoresed for 1.5 hr at 100V (10% polyacrylamide gel), then transferred to a nitrocellulose membrane. The membrane was blocked for 4 hours at 4° C. in blocking solution then incubated overnight at 4° C. in a 1:200 dilution of rabbit anti-ABCA1antibody (Santa Cruz Biotechnology). The following day, the membrane was washed 5 times in TTBS for 5 mins per wash then incubated at room temperature in a 1:5000 dilution of ECL donkey anti-rabbit IgG Horseradish peroxidase-linked species-specific whole antibody. Development proceeded as described above for the 27-OHase antibody.
(§1) Media was aspirated and cells were rinsed 3 times with Dulbecco's Phosphate Buffered Saline (PBS) without Ca++ and Mg++. […] THP-1 macrophages were cholesterol-loaded with 50 μg/ml acetylated LDL and incubated an additional 48 h prior to oil red O staining.
Western Blots: Total cell lysate protein samples (10 μg/lane) were boiled for 5 min, loaded onto a 7.5% polyacrylamide gel, electrophoresed for 1.5 hr at 100V then transferred to a nitrocellulose membrane in a semi-dry transblot apparatus for 1 hr at 100V. For ABCA1 detection, the primary antibody was a rabbit anti-human ABCA1 antibody (1:2000 dilution, Santa Cruz Biotechnology). […]

[7] = test system: THP-1 macrophages; assay: Foam cell formation in acetylated LDL-loaded THP-1 macrophages (oil red O); type: cell-based, human
Method: THP-1 human monocytes (1×10^6 cells/ml) in 12 well plates were treated with phorbol dibutyrate, 300 nM (Sigma) for 48 hr at 37° C. to facilitate differentiation into macrophages. The differentiated macrophages were washed three times with PBS, then incubated alone or in the presence of 10 μM NS-398 (37° C., 5% CO2, 18 hours). Cells were cholesterol-loaded with acetylated LDL (50 μg/ml) and further incubated in RPMI (37° C., 5% CO2) for 48 hours. Studies were performed in triplicate.
Immediately following incubation, media was aspirated and cells were fixed in the same 12 well plates used for incubation, with 4% paraformaldehyde in water, for 2-4 minutes. Cells were stained with 0.2% Oil-Red-O in methanol for 1-3 min. Cells were observed via light microscope (Axiovert 25-Zeiss) with 100× magnification and then photographed using a Kodak DC 290 Zoom Digital Camera. The number of foam cells formed in each condition were calculated manually and presented as percentage foam cell formation.
as §1
Following incubation, media was aspirated and cells were fixed with 4% paraformaldehyde in water, for 2-4 min. Cells were stained with 0.4% trypan blue for 1-3 min, washed in PBS, and then stained with 0.2% oil-Red-O in methanol for 1-3 min. Observation and photography of cells was performed respectively via light microscope (NIKON Eclipse TE300) with 40× magnification and SONY Progressive 3CCD color video camera. The number of foam cells formed in each condition were calculated manually and presented as percentage foam cell formation.

[8] = test system: 27-OHase in peripheral blood monocytes; assay: 27-OHase in healthy monocytes isolated from peripheral blood (PBMC); type: cell-based, human; details: MTX 5 μM, 18 h
Method: PBMC (peripheral blood mononuclear cell) isolation: Blood from healthy donors was collected in EDTA treated tubes, pooled and kept at 4° C. The pooled blood was adjusted to a density of 1.120 g/ml with the addition of OptiPrep Density Gradient Media (Sigma) according to the manufacturer's instructions. The blood was then overlaid with a 1.074 g/ml density solution composed of complete RPMI containing 10% FBS and OptiPrep media. A layer of complete RPMI containing 10% FBS was then overlaid on top to prevent monocytes from sticking to the plastic tube. The blood was centrifuged at 750 g for 30 minutes at 4° C. After centrifugation, the monocyte interphase was collected from between the 1.074 g/ml and RPMI layer. The collected cells were diluted with 2 volumes of complete RPMI and harvested by centrifugation. The pellet was re-suspended in complete RPMI. The monocytes were counted by hemocytometer and plated at a density of 2×10^6 cells/well in a 6-well plate.
PBMC: PBMC were incubated for 18 h in RPMI with 10% FBS with and without the addition of MTX at a concentration of 5 μM. Cells were collected and RNA isolated.

[9] = vs NS-398 alone, NS-398 50 μM, CGS-21680 10 μM, 18 hrs
[10] = acetylated LDL-treated THP-1 macrophages, MTX series, control 39.3±5.0%, n=3
[11] = THP-1 macrophages, acetylated LDL

## CCNC(=O)[C@H]1O[C@@H](n2cnc3c(N)nc(NCCc4ccc(CCC(=O)O)cc4)nc32)[C@H](O)[C@@H]1O [CGS-21680, 2-(4-(2-carboxyethyl)phenethylamino)-5′-N-ethylcarboxamidoadenosine]
[1]
  terminal half-life: 19 ± 4 min
[2]
  increase in 27-OHase mRNA expression: 47±6.2%
[3]
  effect on 27-OHase protein: this decrease is reversed by the addition of the adenosine A2A agonist CGS-21680
[4]
  increase in 27-OHase message: ≤ 1.8 fold
[4]; [9]
  increase in 27-OHase mRNA on addition of CGS-21680 to NS-398-treated THP-1 cells: 184%
[5]; [9]
  increase in ABCA1 mRNA on addition of CGS-21680 to NS-398-treated THP-1 cells: 141%

## Nc1nc(OCCc2ccc(Cl)cc2)nc2c1ncn2[C@@H]1O[C@H](CO)[C@@H](O)[C@H]1O [MRE-0094]
[4]
  increase in 27-OHase message: 2 fold
[5]; THP-1 cells
  increase in ABCA1 mRNA expression: 1.8 fold

## Cc1ccc(-c2cc(C(F)(F)F)nn2-c2ccc(S(N)(=O)=O)cc2)cc1 [Celecoxib, celecoxib]
[6]
  decrease in ABCA1 protein expression vs. control: 25.6%±1.3
[7]; 50 μM, acetylated LDL loading, control 39.1%±5.4
  foam cells: 95.0%±0.7

## CS(=O)(=O)Nc1ccc([N+](=O)[O-])cc1OC1CCCCC1 [NS-398]
[3]
  effect on 27-OHase protein: 27-OHase protein expression decreased
[4]
  effect on 27-OHase message: dramatically reduced cholesterol 27-OHase message
[4]; NS-398 50 μM, CGS-21680 10 μM
  27-OHase mRNA, % of control: 71.1±4.3% and 58.9±2.3% and 62.4±2.2%
[5]; THP-1 cells, NS-398 50 μM, CGS-21680 10 μM, 18 hrs, untreated = 100%, n=3
  ABCA1 mRNA, % of control: 71.1±3.9% and 60.49±4.42%
[7]; THP-1 macrophages, NS-398 (10 μM, 18 hours), acetylated LDL, control 20.1±3.4%
  foam cell transformation: 42.7±6.6%
[7]; [10]
  foam cells: 72.7±4.9%

## IFN-γ: recombinant human IFN-γ, atherosclerosis-promoting cytokine (R&D Systems)
[4]
  effect on 27-OHase message: decreasing 27-OHase and ABCA1 message and protein expression
[7]; [11]
  effect on foam cell formation: formed foam cells more rapidly and in greater proportion than untreated control cells
[7]; [10]
  foam cells: 71.0±5.0%

## Nc1nc(NCCc2ccc(O)cc2)nc2nc(-c3ccco3)nn12 [ZM-241385]
[4]; THP-1, ZM-241385 with ATL313 or MRE-0094
  reversal by A2A antagonist of agonist-induced rise in 27-OHase (and ABCA1) message: this is reversed by ZM-241385; also recorded: reversed the effect of MRE-0094 on both these messages
[7]; [11]
  effect on foam cell formation: prevents MTX from decreasing NS-398-induced foam cell formation
[7]; acetylated LDL-treated THP-1 macrophages, ZM-241385 then MTX
  foam cells after preincubation with A2A antagonist prior to MTX treatment: 62.1±1.5%

## CN(Cc1cnc2nc(N)nc(N)c2n1)c1ccc(C(=O)N[C@@H](CCC(=O)O)C(=O)O)cc1 [MTX, methotrexate]
[3]
  effect on 27-OHase protein: corrected with increasing concentrations of MTX
[4]
  effect on 27-OHase message: completely blocked NS-398-induced downregulation of 27-OHase message
[4]; NS-398 50 μM, CGS-21680 10 μM
  27-OHase mRNA, % of control: 113.9±6.4%
[8]
  effect on 27-OHase in peripheral blood monocytes: increases 27-OHase
[5]
  effect on ABCA1 message: effective in blocking COX-2 inhibitor-mediated downregulation of ABCA1 message

## COC(=O)N1CCC(CC#Cc2nc(N)c3ncn([C@@H]4O[C@H](C(=O)NC5CC5)[C@@H](O)[C@H]4O)c3n2)CC1 [ATL313]
[4]
  effect on 27-OHase message: increases 27-OHase message
[5]
  effect on ABCA1 message: increases 27-OHase as shown in FIG. 3b and ABCA1 mRNA and protein
